Assay [1] has as its system CPS1. The experiment in a line: RNA-seq of compound-treated primary human hepatocytes, CPS1 expression. Type of assay: cell-based. The conditions noted are these: primary human hepatocytes; for CPS1 expression, Fold change (Log 2) vs untreated: RNA-seq; for Relative CPS1 level vs Untreated (±Standard Deviation): triplicate (Table 19, FIG. 11).
For assay [2], the system named is OTC. The experiment in a line: RNA-seq of compound-treated primary human hepatocytes, OTC expression. Particulars: primary human hepatocytes, RNA-seq. Type of assay: cell-based.
The subject of the next assay is NAGS. Type of assay: cell-based, human. The conditions noted are these: for Relative NAGS level vs Untreated (±Standard Deviation): primary human hepatocytes, triplicate (Table 21, FIG. 13).
Another assay has as its system ARG1. The experiment in a line: RNA-seq of compound-treated primary human hepatocytes, ARG1 expression. It counts as cell-based. Particulars: primary human hepatocytes; for Fold change (Log 2) vs untreated, ARG1 expression: RNA-seq (Table 7).
Another assay relates to urea cycle genes. The experiment in a line: RNA-seq of primary human hepatocytes, compounds that modulate multiple urea cycle-related genes. It counts as cell-based. The conditions noted are these: primary human hepatocytes, RNA-seq; for Up-regulated Genes: urea cycle-related genes significantly increased (Table 10).
The next assay deals with SLC25A15. The experiment in a line: RNA-seq of compound-treated primary human hepatocytes, SLC25A15 expression. Type of assay: cell-based. The conditions noted are these: primary human hepatocytes; for Relative SLC25A15 level vs Untreated (±Standard Deviation): triplicate (Table 24, FIG. 16A-B).
The subject of the next assay is ASS1. The experiment in a line: RNA-seq of compound-treated primary human hepatocytes, ASS1 expression. It counts as cell-based. Particulars: primary human hepatocytes; for Relative ASS1 level vs Untreated (±Standard Deviation): triplicate (Table 15, FIG. 7).
The next assay concerns SLC25A13. The experiment in a line: RNA-seq of compound-treated primary human hepatocytes, SLC25A13 expression. Type of assay: cell-based. The conditions noted are these: primary human hepatocytes, triplicate (Table 23, FIG. 15).
For assay [3], the system named is OTC. The assay is described as follows: JAK inhibitors at 0.3 and 3 μM in primary human hepatocytes, OTC mRNA fold change. It counts as cell-based. The conditions noted are these: fold change vs DMSO. As to the method: (§1) Additional small molecules that inhibit JAK1, JAK2, JAK3, or a combination of the JAK proteins were tested in primary human hepatocytes as described in Example 2. JAK inhibitors were tested in triplicate at 0.3 μM and 3 μM. The results are shown as the fold change (mRNA FC) in the mRNA levels of OTC and CPS1 genes after treatment compared to an untreated control (DMSO) and the standard deviation (SD).

Assay [4] deals with CPS1. The assay is described as follows: JAK inhibitors at 0.3 and 3 μM in primary human hepatocytes, CPS1 mRNA fold change. Particulars: fold change vs DMSO. It counts as cell-based. The protocol:
as §1

Like-named read-outs stand apart in the source and are kept apart here.

Consider “HGF/SF: Hepatocyte Growth Factor, also known as scatter factor (SF)”, for which, in the assay with CPS1 [1], the “CPS1 expression, Fold change (Log 2) vs untreated” value was 2.02 Log 2. Besides, the “OTC expression, Fold change (Log 2) vs untreated” value in the assay with OTC [2] was 0.56 Log 2. The “Fold change (Log 2) vs untreated, NAGS expression” value with NAGS worked out at 0.56 Log 2. Besides, the “Fold change (Log 2) vs untreated, ARG1 expression” value in the assay on ARG1 is 1.51 Log 2. In the assay with urea cycle genes, the “number of urea cycle genes whose expression was significantly up-regulated” value is on record as “four” and the “Up-regulated Genes” value is “NAGS, CPS1, OTC, ARG1”.
As for PDGF, the “CPS1 expression, Fold change (Log 2) vs untreated” value with CPS1 [1] turned out to be 2.12 Log 2. Moreover, in the assay on OTC [2], the “OTC expression, Fold change (Log 2) vs untreated” value turned out to be 0.77 Log 2. The “Fold change (Log 2) vs untreated, ARG1 expression” value in the assay on ARG1 came to 1.85 Log 2. Also, the “Fold change (Log 2) vs untreated, SLC25A15 expression” value in the assay on SLC25A15 (RNA-seq (Table 8)) stood at 0.71 Log 2. For the same molecule, in the assay with urea cycle genes, the “number of urea cycle genes whose expression was significantly up-regulated” value is given as “four” and the “Up-regulated Genes” value is given as “CPS1, OTC, ARG1, SLC25A15”.
Take `COc1cccc2cc(-c3nc([C@H]4CC[C@H](C(=O)O)CC4)n4ncnc(N)c34)[nH]c12` [OSI-027]: the “Relative ASS1 level vs Untreated (±Standard Deviation)” value was found to be 1.55 ± 0.16 in the assay with ASS1 (1 μM), 1.45 ± 0.10 in the assay with ASS1 (3 μM) and 2.05 ± 0.00 in the assay with ASS1 (10 μM). For the same molecule, the “Relative NAGS level vs Untreated (±Standard Deviation)” value with NAGS (0.3 μM) is given as 1.46 ± 0.07; in the assay with NAGS (1 μM), 1.37 ± 0.27; in the assay on NAGS (3 μM) it was 2.51 ± 0.16; in the assay on NAGS (10 μM) it was 2.14 ± 0.12. The “Relative SLC25A15 level vs Untreated (±Standard Deviation)” value in the assay on SLC25A15 (1 μM) is recorded as 1.53 ± 0.01; in the assay on SLC25A15 (3 μM) it was 1.87 ± 0.46; in the assay on SLC25A15 (10 μM), 1.52 ± 0.04. Moreover, the “Relative SLC25A13 level vs Untreated (±Standard Deviation)” value with SLC25A13 (1 μM) was 1.53 ± 0.01; in the assay with SLC25A13 (3 μM), 1.87 ± 0.46; in the assay on SLC25A13 (10 μM) it was 1.52 ± 0.04.
For the molecule “EGF: Epidermal Growth Factor, a polypeptide growth factor”, in the assay on CPS1 [1], the “CPS1 expression, Fold change (Log 2) vs untreated” value came out at 1.93 Log 2. The “OTC expression, Fold change (Log 2) vs untreated” value in the assay on OTC [2] is on record as 0.64 Log 2. Besides, the “Fold change (Log 2) vs untreated, ARG1 expression” value with ARG1 was 1.46 Log 2. Also, in the assay on urea cycle genes, the “number of urea cycle genes whose expression was significantly up-regulated” value is recorded as “three” and the “Up-regulated Genes” value is recorded as “CPS1, OTC, ARG1”.
For `O=C(Nc1c[nH]nc1-c1nc2ccc(CN3CCOCC3)cc2[nH]1)NC1CC1` [AT9283], the figures for the “Relative CPS1 level vs Untreated (±Standard Deviation)” value in the assay with CPS1 [1] (3 μM) and in the assay with CPS1 [1] (10 μM) were 2.35 ± 0.15 and 1.53 ± 0.33, respectively. The “Relative ASS1 level vs Untreated (±Standard Deviation)” value in the assay with ASS1 (3 μM) stood at 1.40 ± 0.43; in the assay with ASS1 (10 μM), 2.48 ± 0.79. In addition, the “Relative NAGS level vs Untreated (±Standard Deviation)” value in the assay with NAGS (0.3 μM) came to 1.43 ± 0.38; in the assay with NAGS (1 μM), 1.49 ± 0.10; with NAGS (3 μM), 1.38 ± 0.07. Moreover, the “Relative ARGI level vs Untreated (±Standard Deviation)” value with ARG1 (10 μM, triplicate (Table 17, FIG. 9)) is given as 1.70 ± 0.16. Moreover, the results for the “Relative SLC25A15 level vs Untreated (±Standard Deviation)” value in the assay with SLC25A15 (1 μM), in the assay on SLC25A15 (3 μM) and in the assay on SLC25A15 (10 μM) were 1.78 ± 0.04, 2.56 ± 1.37 and 2.94 ± 0.98, respectively. The “OTC mRNA FC” value with OTC [3] (0.3 uM) worked out at 1.56; with OTC [3] (3 uM), 0.56. The entries for the “CPS1 mRNA FC” value with CPS1 [4] (0.3 uM) and in the assay on CPS1 [4] (3 uM) were 1.53 and 1.05, respectively.
Consider TNF-α, for which, in the assay on CPS1 [1], the “CPS1 expression, Fold change (Log 2) vs untreated” value came out at 2.31 Log 2. Moreover, in the assay on OTC [2], the “OTC expression, Fold change (Log 2) vs untreated” value is 0.87 Log 2. In the assay on ASS1 (RNA-seq (Table 4)), the “Fold change (Log 2) vs untreated, ASS1 expression” value is recorded as 0.58 Log 2. For the same molecule, in the assay with urea cycle genes, the “number of urea cycle genes whose expression was significantly up-regulated” value was “four” and the “Up-regulated Genes” value was “CPS1, ASS1, OTC, ARG1”.
For the molecule Activin, in the assay on CPS1 [1], the “CPS1 expression, Fold change (Log 2) vs untreated” value was determined as 2.23 Log 2. In addition, the “OTC expression, Fold change (Log 2) vs untreated” value in the assay on OTC [2] was 0.94 Log 2. The “Fold change (Log 2) vs untreated, NAGS expression” value with NAGS is listed as 0.69 Log 2. For the same molecule, the “Fold change (Log 2) vs untreated, ARG1 expression” value with ARG1 is recorded as 2.01 Log 2. Besides, in the assay on urea cycle genes, the “number of urea cycle genes whose expression was significantly up-regulated” value was “four” and the “Up-regulated Genes” value is “NAGS, CPS1, OTC, ARG1”.

(Values after patent US11266655B2, “Methods and compositions for treating urea cycle disorders” (Camp4 Therapeutics Corporation, priority 2019, dated 2022).)
